{"source": "patent US20130281504A1", "about": "“Reduction of Microglia-Mediated Neurotoxicity by KCa3.1 Inhibition” (THE REGENTS OF THE UNIVERSITY OF CALIFORNIA, priority 2010, published 2013)", "key": {"p38MAPK": {"system": "p38MAPK", "experiment": "p38MAPK phosphorylation in microglia (Western blot)", "assay_type": "cell-based, mouse", "conditions": "doxycycline 20 μM, TRAM-34 1 μM, FIG. 2D", "protocol": "Primary microglia cultures derived from newborn C57BL/6J mice were prepared from mixed glia cultures with the “shaking off” method described by Maezawa, I., et al.; (2006) FASEB J 20, 797-799. […] To obtain conditioned medium (CM) for treating neurons, microglia were first cultured in 24-well culture plates at a density of 1.3×10^5 cells/cm^2 for 24 hrs in DMEM with 10% fetal bovine serum (DMEM10). Cultures were washed extensively and changed to the Neurobasal medium with B27 supplement (NB/B27, Invitrogen) without serum and cultured for another 24 hrs. The NB/B27-based microglia CMs were collected, briefly centrifuged, and used immediately or frozen for future uses.\nTo obtain lysates, cells or tissues were washed with ice-cold PBS and incubated with a buffer containing 50 mmol/L Tris-HCl (pH 7.4), 150 mmol/L NaCl, 2% SDS, proteinase inhibitor cocktail (Sigma), and phosphatase inhibitor cocktail (Sigma). Lysates were briefly sonncated and cleared by centrifugation at 50,000 rpm for 10 min. Equivalent amounts of protein were analyzed by Tris/HCL gel electrophoresis. Proteins were transferred to polyvinylidene difluoride membranes and probed with antibodies. Visualization was performed using enhanced chemiluminescence (ECL, Amersham Pharmacia, Piscataway, N.J.).\nThe following primary antibodies (dilutions) were used: anti-p38MAPK (1:1000, Cell Signaling Technology, Boston, Mass.), anti-phospho-p38MAPK (1:1000, Cell Signaling Technology), anti-Synaptophysin (1:1000, Abcam), anti-PSD95 (1:1000, cell signaling), anti-GRIP 1 (1:1000, UpState), anti-MAP2 (1:1000, Chemicon), anti-acetylated α-tubulin (1:2000, Zymed), and anti-β-actin (1:3000, Sigma). Secondary antibodies were HRP-conjugated anti-rabbit, anti-goat, or anti-mouse antibody (1:3000 Amersham)."}, "NFκB": {"system": "NFκB", "experiment": "NFκB assay in microglia", "assay_type": "cell-based, mouse", "conditions": "2 hrs; 20 μM doxycycline, 1 μM TRAM-34; FIG. 2E", "protocol": "The detection of cells with active NFκB was performed according to the method described by Franciosi, S., et al.; (2006) J Neurosci 26, 11652-11664. Briefly, microglia were plated as described above and treated with activators for 2 hrs. Cells were fixed and stained with anti-NF-κBp65 antibody (1:250, Chemicon) and with the nuclear dye DAPI."}, "microglia": {"system": "microglia", "experiment": "Assay for nitric oxide (nitrite) in microglia conditioned medium", "assay_type": "cell-based, mouse", "conditions": "24 hr"}, "KCa3.1": {"biological_target": "T1, KCa3.1 (Mus musculus, UniProt O89109)", "T1 construct": "endogenous in cells; host or cells: primary mouse microglia harvested from the astrocyte feeder layer", "T1 sequence (O89109 whole entry)": "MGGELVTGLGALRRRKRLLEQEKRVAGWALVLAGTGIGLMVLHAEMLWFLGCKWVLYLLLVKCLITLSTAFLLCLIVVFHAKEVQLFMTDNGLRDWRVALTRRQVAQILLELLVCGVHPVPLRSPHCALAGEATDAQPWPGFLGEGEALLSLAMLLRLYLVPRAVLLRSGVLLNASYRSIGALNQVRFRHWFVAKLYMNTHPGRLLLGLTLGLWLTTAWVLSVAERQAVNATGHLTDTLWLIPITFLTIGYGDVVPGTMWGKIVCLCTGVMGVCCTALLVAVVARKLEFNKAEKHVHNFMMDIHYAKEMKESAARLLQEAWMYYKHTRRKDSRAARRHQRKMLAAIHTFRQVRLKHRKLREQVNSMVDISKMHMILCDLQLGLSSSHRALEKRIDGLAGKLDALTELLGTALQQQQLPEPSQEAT", "experiment": "Whole-cell patch-clamp of mouse microglia KCa currents", "assay_type": "cell-based", "conditions": "1 μM TRAM-34; voltage-ramps −120 to +40 mV; FIG. 4A", "protocol": "Microglia, that were “floating off” from their feeding astrocyte layer, were harvested with a pipette, washed, attached to poly-L-lysine coated cover-slips, and then studied in the whole-cell mode of the patch-clamp technique with an EPC-10 HEKA amplifier. The pipette solution contained 145 mM K^+ aspartate, 2 mM MgCl2, 10 mM HEPES, 10 mM K2EGTA and 8.5 mM CaCl2 (1 μM free Ca^2+), pH 7.2, 290 mOsm. To reduce chloride “leak” currents, we used a Na^+ aspartate external solution containing 160 mM Na^+ aspartate, 4.5 mM KCl, 2 CaCl2, 1 mM MgCl2, 5 mM HEPES, pH 7.4, 300 mOsm. K^+ currents were elicited with voltage ramps from −120 to 40 mV of 200 ms duration applied every 10 s. […] Cell capacitance, a direct measurement of cell surface area, was continuously monitored during recordings. KCa3.1 current density was determined by dividing the TRAM-34-sensitive slope conductance by the cell capacitance."}, "[1]": {"experiment": "Plasma protein binding by ultrafiltration", "assay_type": "in vitro ADME, rat", "conditions": "rat plasma spiked with 50 and 100 μM", "protocol": "(§1) The centrifugate (=free TRAM-34) was directly analyzed for TRAM-34 by HPLC-MS. The retentate was collected by inverting the filter into an Eppendorf tube and spinning at 14000 rpm for 15 min."}, "plasma protein": {"system": "plasma protein", "experiment": "Plasma protein binding by ultrafiltration", "assay_type": "in vitro ADME, rat", "protocol": "as §1"}, "[2]": {"conditions": "mice, previously determined; cited from earlier work"}, "[3]": {"experiment": "Physiological parameters by I-STAT in venous blood of MCAO rats", "assay_type": "in vivo, rat", "conditions": "After Reperfusion, ±SD"}}, "note": "Where “and” joins values, the source holds several entries; their conditions need not be identical. Identical values can stand only once."}
{"smiles": "Clc1ccccc1C(c1ccccc1)(c1ccccc1)n1cccn1", "note": "[TRAM-34, 1-[(2-chlorophenyl)diphenylmethyl]-1H-pyrazole]", "values": [{"measurement": "LPS-induced p38MAPK phosphorylation", "setting": "p38MAPK; LPS 100 ng/ml, 30 minutes", "value": "no significant difference"}, {"measurement": "AβO-induced p38MAPK phosphorylation", "setting": "p38MAPK; microglia treated 30 minutes", "value": "no significant difference"}, {"measurement": "AβO-induced NFκB activation (p65-immunoreactive cells)", "setting": "NFκB", "value": "prevented"}, {"measurement": "LPS-induced NFκB activation", "setting": "NFκB", "value": "not significantly"}, {"measurement": "microglia NO production, compound alone", "setting": "microglia; without AβO", "value": "did not affect NO production"}, {"measurement": "AβO-induced increase of microglia NO production", "setting": "microglia; 20 μM doxycycline, 1 μM TRAM-34, FIG. 2F", "value": "prevented"}, {"measurement": "sensitivity of voltage-independent current component", "setting": "KCa3.1", "value": "sensitive"}, {"measurement": "fraction unbound", "setting": "[1]", "value": 0.02}, {"measurement": "unbound (=free) fraction", "setting": "plasma protein; rat plasma", "value": "2.0±0.4% and 2%"}, {"measurement": "plasma protein binding", "setting": "plasma protein; rat plasma spiked with 50 and 100 μM", "value": 98, "unit": "%"}, {"measurement": "half-life", "setting": "[2]", "value": 1, "unit": "h"}, {"measurement": "BUN", "setting": "[3]; TRAM-34 10 mg/kg", "value": "12.8 ± 7.2", "unit": "mg/dL"}, {"measurement": "Glucose", "setting": "[3]; TRAM-34 10 mg/kg", "value": "179.2 ± 48.2", "unit": "mg/dL"}, {"measurement": "Na^+", "setting": "[3]; TRAM-34 10 mg/kg", "value": "134.4 ± 2.3", "unit": "mmol/L"}, {"measurement": "BUN", "setting": "[3]; TRAM-34 40 mg/kg", "value": "22.2 ± 4.0", "unit": "mg/dL"}, {"measurement": "Glucose", "setting": "[3]; TRAM-34 40 mg/kg", "value": "171.8 ± 54.3", "unit": "mg/dL"}, {"measurement": "HCO3^−", "setting": "[3]; TRAM-34 40 mg/kg", "value": "32.5 ± 5.7", "unit": "mmol/L"}, {"measurement": "pH", "setting": "[3]; TRAM-34 40 mg/kg", "value": "7.4 ± 0.13"}]}
